Test results published in patent US10087194B2, “Podophyllotoxin derivatives and their use” (California Pacific Medical Center, priority 2015, dated 2018).
Like-named read-outs stand apart in the source and are kept apart here.

Assays:
[1] = test system: H23 Human Non-small Cell Lung Cancer Cells; assay: Colony formation assay, H23; type: cell-based; conditions: read-out: IC50 (H23)
Procedure: (§1) Cancer cells were plated in 60 mm Petri dishes containing 2.7 ml of medium (modified McCoy's 5a medium containing 10% fetal bovine serum and 100 units/ml penicillin and 100 ug/ml streptomycin). The cells were incubated in a CO2 incubator at 37 degree C. for 5 hours for attachment to the bottom of Petri dishes. Drugs were made up fresh in medium at ten times the final concentration, and then 0.3 ml of this stock solution was added to the 2.7 ml of medium in the dish. The cells were then incubated with drugs for 72 hours at 37 degree C. At the end of incubation the drug-containing media were decanted, the dishes were rinsed with 4 ml of Hank's Balance Salt Solution (HBSS), 5 ml of fresh medium was added, and the dishes were returned to the incubator for colony formation. The cell colonies were counted using colony counter after incubation for 7 days (HCT116 cell line), 14 days (VM46 cell line) and 15 days (H23 cell line). Cell survival (%) was calculated from 3 repeated dishes for each drug concentration and the mean values of IC50 (the drug concentration producing 50% inhibition of colony formation) were determined for each tested compound.

[2] = test system: VM46 Human Colon Cancer Cells Overexpressing Multi-drug Resistant Gene 1; assay: Colony formation assay, VM46; type: cell-based; conditions: read-out: IC50 (VM46)
Procedure: as §1

[3] = test system: HCT116 Human Colon Cancer Cells; assay: Colony formation assay, HCT116; type: cell-based
Procedure: as §1

[4] = test system: HCT116 human colon cancer xenograft; assay: Subcutaneous HCT116 human colon cancer xenograft model; type: in vivo, Mus Musculus; conditions: for TGI: HCT116, day 29
Procedure: Each mouse was inoculated subcutaneously with 5×10^6 HCT116 tumor cells in 0.1 ml PBS for tumor development. Treatments were started when the tumor volume reached 100 mm^3. […] Body weight and tumor volume were measured twice a week.

[5] = test system: K562 human chronic myeloid leukemia xenograft; assay: Subcutaneous K562 human chronic myeloid leukemia xenograft model
[6] = Toxicity study (MTD) in normal mice; conditions: single i.p. injection; C3H female normal mice; checked daily for 40 days (MTD40)
Rat MTD study = type: in vivo, Sprague-Dawley rats
Procedure: In the rat MTD study, Sprague-Dawley rats were dosed with 801 HCl at a concentration of 6 mg/ml via intravenous infusion or slow intravenous injection. The MTD of 801 in normal rats was 120 mg/kg/day. In the 7-day repeating dose study, the rats were administered with […] via BID slow IV injection for 7 days.

[7] = test system: COLO205 human colon cancer xenograft; assay: Subcutaneous COLO205 human colon cancer xenograft model; type: in vivo, Mus Musculus
Procedure: Each mouse was inoculated subcutaneously with 5×10^6 COLO205 tumor cells in 0.1 ml PBS for tumor development. Treatments were started when the tumor volume reached 120 mm^3. […] Body weight and tumor volume were measured twice a week.

[8] = Toxicity studies in Cynomolgus monkeys (MTD); type: in vivo
[9] = test system: HCT116 human colon cancer xenografts; assay: Preliminary in vivo efficacy, HCT116 xenografts in nude mice; design: species or system nude mice (nu/nu genotype); conditions: single i.p. injection at i.p. MTD doses
Procedure: In vivo anticancer efficacy study was performed on nude mice (nu/nu genotype) bearing HCT116 human colon cancer xenografts. These human tumors grew exponentially following implantation into the flanks of the mice and reached an average tumor volume of 79.85 cu. mm. Treatment was initiated at that time, with the first day of treatment designated as day 0 for all calculations and plots. The 6 mice were injected i.p. with each of four Neovia drug solutions (5% alcohol, 5% Cremophor EL, and 90% saline, 0.5 ml/20 g, single injection). Drug doses (i.p. MTD doses) were 120 mg/kg for Neovia-1, 300 mg/kg for Neovia-2, 120 mg/kg for Neovia-3, and 180 mg/kg for Neovia-4. Control group of mice was treated with vehicle alone. After treatment, tumor sizes were measured by caliper every other day. The measurement of the tumor diameters (d1, d2) in two orthogonal directions was used to calculate the tumor volume (tumor volume=π/6 {(d1+d2)/2}3) using the approximation that the tumors are spherical. Each tumor growth curve for each mouse was plotted. The time (days) required to grow the tumor to the size of 800 cu. mm after various treatments was calculated as tumor growth delay indexes for evaluating the treatment effects. Survival times after treatment was also observed and recorded.

in vivo = conditions: female, C3H, mouse, ip
[10] = Homo sapiens, drugs 72 hours, colonies counted after 15 days
[11] = Homo sapiens, drugs 72 hours, colonies counted after 14 days
[12] = Homo sapiens, HCT-116, drugs 72 hours, colonies counted after 7 days, read-out: IC50 (HCT116)

CCc1c2c(nc3ccc(OC(=O)N4CCC(N5CCCCC5)CC4)cc13)-c1cc3c(c(=O)n1C2)COC(=O)C3(CC)OC(=O)COc1ccc(C(=O)OC2c3cc4c(cc3C(c3cc(OC)c(OC)c(OC)c3)[C@H]3C(=O)OC[C@@H]23)OCO4)cc1 (some centres unmarked) [Compound N3] showed an IC50 ([1]; Homo sapiens) of 200 nM, an IC50 ([2]; Homo sapiens) of 300 nM and an IC50 ([3]; Homo sapiens, HCT-116, read-out: IC50 (HCT116)) of 283 nM.
With CCC1(OC(=O)COc2ccc(C(=O)OC3c4cc5c(cc4C(c4cc(OC)c(OC)c(OC)c4)C4C(=O)OCC34)OCO5)cc2)C(=O)OCc2c1cc1n(c2=O)Cc2cc3cc(OC(=O)N4CCC(N5CCCCC5)CC4)ccc3nc2-1.Cl (centres unmarked) [Compound 801-HCl] the TGI ([4]; 125 mg/kg i.p. q3d x 3) was 93%, the “Mean Tumor Volume” value ([5]; 300 mg/kg ip Days 8, 11, 14, Day 8) was 159 ± 16 mm^3 and the “Mean Tumor Volume” value ([5]; 300 mg/kg ip Days 8, 11, 14, Day 11) was 221 ± 27 mm^3. The “Mean Tumor Volume” value ([5]; 300 mg/kg ip Days 8, 11, 14, Day 14) was 164 ± 16 mm^3, the “Mean Tumor Volume” value ([5]; 300 mg/kg ip Days 8, 11, 14, Day 18) was 47 ± 7 mm^3 and the “Mean Tumor Volume” value ([5]; 300 mg/kg ip Days 8, 11, 14, Day 21) was 39 ± 6 mm^3. For the same compound, the “Mean Tumor Volume” value ([5]; 300 mg/kg ip Days 8, 11, 14, Day 25) was 74 ± 12 mm^3, the “Mean Tumor Volume” value ([5]; 300 mg/kg ip Days 8, 11, 14, Day 28) was 95 ± 19 mm^3 and the “maximum BW loss” value ([5]; 300 mg/kg ip, next day after the 2nd dosing) was 7.7%. For the same compound, the “TGI (Day 25)” value ([5]; K562, 300 mg/kg ip Days 8, 11, 14) was 98%, the “CR ratio (ratio of complete regression)” value ([5]; K562, 300 mg/kg ip Days 8, 11, 14, by Day 21) was 3/8 and the “MTD Values” [6] was 300 mg/kg. For the same compound, the MTD (Rat MTD study; normal Sprague-Dawley rats, 6 mg/ml via intravenous infusion or slow intravenous injection) was 120 mg/kg/day, the TGI ([7]; 125 mg/kg i.p. q3d x 3, day 29) was 70% and the “MTD for repeating dosing” value ([8]; 5-day repeat dose, intravenous infusion) was 30 mg/kg/day. For the same compound, the MTD ([8]; intravenous infusion twice daily with a 5-hour interval) was 60 mg/kg/day.
In the case of CCC1(OC(=O)COc2ccc(C(=O)OC3c4cc5c(cc4C(c4cc(OC)c(OC)c(OC)c4)C4C(=O)OCC34)OCO5)cc2)C(=O)OCc2c1cc1n(c2=O)Cc2cc3cc(OC(=O)N4CCC(N5CCCCC5)CC4)ccc3nc2-1 (centres unmarked) [Compound N2], the IC50 ([1]; drugs 72 hours, colonies counted after 15 days) is reported as 462 nM, the IC50 ([2]; drugs 72 hours, colonies counted after 14 days) is reported as about 520 nM and the “MTD Values” [6] is reported as 300 mg/kg. For the same compound, the “inhibiting the growth of HCT116 human colon cancer xenografts” value [9] was “most promising candidate drug against HCT116 human colon cancer among all 4 compounds”, the “MTD for repeating dosing” value (Rat MTD study; rats, BID slow IV injection for 7 days) was 60 mg/kg/day and the IC50 ([3]; drugs 72 hours, colonies counted after 7 days, read-out: IC50 (HCT116)) was over 500 nM.
With CCc1c2c(nc3ccc(O)c(CN(C)C)c13)-c1cc3c(c(=O)n1C2)COC(=O)C3(CC)OC(=O)COc1ccc(C(=O)OC2c3cc4c(cc3C(c3cc(OC)c(OC)c(OC)c3)C3C(=O)OCC23)OCO4)cc1.Cl (centres unmarked) [N4 HCL Salt] the “MTD Values” [6] was 180 mg/kg.
Compound CCc1c2c(nc3ccc(O)c(CN(C)C)c13)-c1cc3c(c(=O)n1C2)COC(=O)C3(CC)OC(=O)COc1ccc(C(=O)OC2c3cc4c(cc3C(c3cc(OC)c(OC)c(OC)c3)[C@H]3C(=O)OC[C@@H]23)OCO4)cc1 (some centres unmarked) [Compound N4] has an IC50 [1, 10] of 12.9 nM, an IC50 [2, 11] of 5 nM and an MTD (in vivo) of 250 mg/kg. It also gave an IC50 [3, 12] of 6.6 nM.
For CCc1c2c(nc3ccc(OC(=O)N4CCC(N5CCCCC5)CC4)cc13)-c1cc3c(c(=O)n1C2)COC(=O)[C@]3(O)CC [Irinotecan], the TGI ([4]; 70 mg/kg i.p. q3d x 3) was 92%, the body weight loss ([4]; HCT116 model, during the treatment period) was 8% and the TGI ([7]; 70 mg/kg i.p. q3d x 3, day 29) was 97%.
In the case of CCC1(OC(=O)COc2ccc(C(=O)OC3c4cc5c(cc4C(c4cc(OC)c(OC)c(OC)c4)C4C(=O)OCC34)OCO5)cc2)C(=O)OCc2c1cc1n(c2=O)Cc2cc3c(CN(C)C)c(O)ccc3nc2-1.Cl (centres unmarked) [N1 HCL Salt], the “MTD Values” [6] is reported as 120 mg/kg.
Work on CCC1(OC(=O)COc2ccc(C(=O)OC3c4cc5c(cc4C(c4cc(OC)c(OC)c(OC)c4)[C@H]4C(=O)OC[C@@H]34)OCO5)cc2)C(=O)OCc2c1cc1n(c2=O)Cc2cc3c(CN(C)C)c(O)ccc3nc2-1 (some centres unmarked) [Compound N1] yielded an IC50 [1, 10] of 7.05 nM, an IC50 [2, 11] of 8 nM and an IC50 [3, 12] of 24.2 nM.
With CCc1c2c(nc3ccc(OC(=O)N4CCC(N5CCCCC5)CC4)cc13)-c1cc3c(c(=O)n1C2)COC(=O)C3(CC)OC(=O)COc1ccc(C(=O)OC2c3cc4c(cc3C(c3cc(OC)c(OC)c(OC)c3)C3C(=O)OCC23)OCO4)cc1.Cl (centres unmarked) [N3 HCL Salt] the “MTD Values” [6] was 144 mg/kg.
